US20040192888A1, “Method of preparing peptide with high yield and high purity using2-(4-nitrophenylsulfonyl) ethoxycarbonyl-amino acids” (priority 2001, published 2004)

Test: Dissolution comparison of Nα-Nsc-amino acids and Nα-Fmoc-amino acids
Type: physicochemical
Set-up: key: ◯: dissolution; Δ: partial dissolution; X: no dissolution
Conditions: for Dissolved state, Nsc, column B / Dissolved state, Nsc, column A / Dissolved state, Nsc, column D / Dissolved state, Nsc, column C: Nsc-amino acid; for Dissolved state, Nsc, column B / Dissolved state, Nsc, column A / Dissolved state, Fmoc, column B / Dissolved state, Fmoc, column A: 100 mg in 1 ml dichloromethane; for Dissolved state, Nsc, column B / Dissolved state, Nsc, column D / Dissolved state, Fmoc, column B / Dissolved state, Fmoc, column D: heated at 40° C. for 5 minutes, then room temperature 5 minutes; for Dissolved state, Nsc, column A / Dissolved state, Nsc, column C / Dissolved state, Fmoc, column A / Dissolved state, Fmoc, column C: stirring 5 minutes; for Dissolved state, Nsc, column D / Dissolved state, Nsc, column C / Dissolved state, Fmoc, column D / Dissolved state, Fmoc, column C: 15% DMF/DCM; for Dissolved state, Fmoc, column B / Dissolved state, Fmoc, column A / Dissolved state, Fmoc, column D / Dissolved state, Fmoc, column C: Fmoc-amino acid
Experimental: Since only amino acids fully dissolved in a solvent can be used in acylation reactions, the following tests were performed to find solvent conditions in which amino acids can be completely dissolved.
100 mg of each of Nα-Nsc-amino acids and Nα-Fmoc-amino acids shown in Table 1, below, were precisely weighed and added to two containers added with 1 ml of dichloromethane (hereinafter, referred to as “DCM”), followed by stirring for 5 minutes. The dissolved states of amino acids were observed and are expressed in column A of the following Table 1.
Other amino acids, exclusive of totally dissolved amino acids, were heated in an oven at 40° C. for 5 minutes, and allowed to stand at room temperature for 5 minutes. Their dissolved states are shown in column B.
As such, the undissolved amino acids were dissolved in 15% dimethylformamide (hereinafter, referred to as “DMF”)/DCM in the same manner as in the case of the above column A, and their dissolved states are presented in column C.
Still undissolved amino acids were heated in an oven at 40° C. for 5 minutes, and allowed to stand at room temperature for 5 minutes. Their dissolved states were observed and are shown in column D.

| SMILES | Dissolved state, Nsc, column B | Dissolved state, Nsc, column A | Dissolved state, Nsc, column D | Dissolved state, Nsc, column C | Dissolved state, Fmoc, column B | Dissolved state, Fmoc, column A | Dissolved state, Fmoc, column D | Dissolved state, Fmoc, column C |
| --- | --- | --- | --- | --- | --- | --- | --- | --- |
| O=C(CC(NC(=O)OCCS(=O)(=O)c1ccc([N+](=O)[O-])cc1)C(=O)O)NC(c1ccccc1)(c1ccccc1)c1ccccc1 (stereo not drawn) [Nsc-Asn] | X | X | ◯ | ◯ |  |  |  |  |
| CC(C)(C)OC(=O)CCC(NC(=O)OCCS(=O)(=O)c1ccc([N+](=O)[O-])cc1)C(=O)O (stereo not drawn) [Nsc-Glu] | ◯ | ◯ | ◯ | ◯ |  |  |  |  |
| CC(C)(C)OC(=O)NCCCCC(NC(=O)OCC1c2ccccc2-c2ccccc21)C(=O)O (stereo not drawn) [Fmoc-Lys, reference compound] |  |  |  |  | ◯ | ◯ | ◯ | ◯ |
| CC(=O)NCSCC(NC(=O)OCC1c2ccccc2-c2ccccc21)C(=O)O (stereo not drawn) [Fmoc-Cys, reference compound] |  |  |  |  | X | X | ◯ | Δ |
| O=C(N[C@@H](Cc1ccccc1)C(=O)O)OCCS(=O)(=O)c1ccc([N+](=O)[O-])cc1 [Nsc-Phe] | X | X | ◯ | ◯ |  |  |  |  |
| CC(C)C(NC(=O)OCCS(=O)(=O)c1ccc([N+](=O)[O-])cc1)C(=O)O (stereo not drawn) [Nsc-Val] | ◯ | ◯ | ◯ | ◯ |  |  |  |  |
| NC(=O)CC[C@H](NC(=O)OCC1c2ccccc2-c2ccccc21)C(=O)O [Fmoc-Gln, reference compound] |  |  |  |  | ◯ | ◯ | ◯ | ◯ |
| CC(OC(C)(C)C)C(NC(=O)OCCS(=O)(=O)c1ccc([N+](=O)[O-])cc1)C(=O)O (stereo not drawn) [Nsc-Thr] | ◯ | ◯ | ◯ | ◯ |  |  |  |  |
| C[C@H](NC(=O)OCC1c2ccccc2-c2ccccc21)C(=O)O [Fmoc-Ala, reference compound] |  |  |  |  | X | X | ◯ | Δ |
| O=C(O)CNC(=O)OCCS(=O)(=O)c1ccc([N+](=O)[O-])cc1 [Nsc-Gly] | X | X | ◯ | Δ |  |  |  |  |
| O=C(O)CNC(=O)OCC1c2ccccc2-c2ccccc21 [Fmoc-Gly, reference compound] |  |  |  |  | X | X | ◯ | Δ |
| C[C@H](NC(=O)OCCS(=O)(=O)c1ccc([N+](=O)[O-])cc1)C(=O)O [Nsc-Ala] | X | X | ◯ | ◯ |  |  |  |  |
| CC(C)(C)OC(=O)NCCCCC(NC(=O)OCCS(=O)(=O)c1ccc([N+](=O)[O-])cc1)C(=O)O (stereo not drawn) [Nsc-Lys] | ◯ | ◯ | ◯ | ◯ |  |  |  |  |
| CSCC[C@H](NC(=O)OCCS(=O)(=O)c1ccc([N+](=O)[O-])cc1)C(=O)O [Nsc-Met] | ◯ | Δ | ◯ | ◯ |  |  |  |  |
| O=C(O)[C@@H]1CCCN1C(=O)OCCS(=O)(=O)c1ccc([N+](=O)[O-])cc1 [Nsc-Pro] | ◯ | ◯ | ◯ | ◯ |  |  |  |  |
| CC(C)CC(NC(=O)OCCS(=O)(=O)c1ccc([N+](=O)[O-])cc1)C(=O)O (stereo not drawn) [Nsc-Leu] | X | X | ◯ | Δ |  |  |  |  |
| CC[C@H](C)[C@H](NC(=O)OCCS(=O)(=O)c1ccc([N+](=O)[O-])cc1)C(=O)O [Nsc-Iie] | ◯ | Δ | ◯ | ◯ |  |  |  |  |

| SMILES | Dissolved state, Nsc, column B | Dissolved state, Nsc, column A | Dissolved state, Nsc, column D | Dissolved state, Nsc, column C | Dissolved state, Fmoc, column B | Dissolved state, Fmoc, column A | Dissolved state, Fmoc, column D | Dissolved state, Fmoc, column C |
| --- | --- | --- | --- | --- | --- | --- | --- | --- |
| O=C(NC(Cc1cn(C(c2ccccc2)(c2ccccc2)c2ccccc2)cn1)C(=O)O)OCC1c2ccccc2-c2ccccc21 (stereo not drawn) [Fmoc-His, reference compound] |  |  |  |  | ◯ | ◯ | ◯ | ◯ |
| O=C(NC(Cc1c[nH]c2ccccc12)C(=O)O)OCC1c2ccccc2-c2ccccc21 (stereo not drawn) [Fmoc-Trp, reference compound] |  |  |  |  | X | X | ◯ | ◯ |
| CC(C)(C)OCC(NC(=O)OCCS(=O)(=O)c1ccc([N+](=O)[O-])cc1)C(=O)O (stereo not drawn) [Nsc-Ser] | ◯ | ◯ | ◯ | ◯ |  |  |  |  |
| CC(OC(C)(C)C)C(NC(=O)OCC1c2ccccc2-c2ccccc21)C(=O)O (stereo not drawn) [Fmoc-Thr, reference compound] |  |  |  |  | ◯ | ◯ | ◯ | ◯ |
| CC(C)C[C@@H](NC(=O)OCC1c2ccccc2-c2ccccc21)C(=O)O [Fmoc-Leu, reference compound] |  |  |  |  | ◯ | Δ | ◯ | ◯ |
| CC(C)[C@H](NC(=O)OCC1c2ccccc2-c2ccccc21)C(=O)O [Fmoc-Val, reference compound] |  |  |  |  | X | X | ◯ | ◯ |
| O=C(O)[C@@H]1CCCN1C(=O)OCC1c2ccccc2-c2ccccc21 [Fmoc-Pro, reference compound] |  |  |  |  | ◯ | ◯ | ◯ | ◯ |
| O=C(N[C@@H](Cc1c[nH]c2ccccc12)C(=O)O)OCCS(=O)(=O)c1ccc([N+](=O)[O-])cc1 [Nsc-Trp] | X | X | ◯ | Δ |  |  |  |  |
| CC[C@H](C)[C@H](NC(=O)OCC1c2ccccc2-c2ccccc21)C(=O)O [Fmoc-Iie, reference compound] |  |  |  |  | Δ | Δ | ◯ | ◯ |
| O=C(N[C@@H](Cc1ccccc1)C(=O)O)OCC1c2ccccc2-c2ccccc21 [Fmoc-Phe, reference compound] |  |  |  |  | X | X | ◯ | Δ |
| O=C(NC(Cc1cn(C(c2ccccc2)(c2ccccc2)c2ccccc2)cn1)C(=O)O)OCCS(=O)(=O)c1ccc([N+](=O)[O-])cc1 (stereo not drawn) [Nsc-His] | ◯ | Δ | ◯ | ◯ |  |  |  |  |
| CSCC[C@H](NC(=O)OCC1c2ccccc2-c2ccccc21)C(=O)O [Fmoc-Met, reference compound] |  |  |  |  | ◯ | X | ◯ | ◯ |
| CC(C)(C)Oc1ccc(CC(NC(=O)OCC2c3ccccc3-c3ccccc32)C(=O)O)cc1 (stereo not drawn) [Fmoc-Tyr, reference compound] |  |  |  |  | ◯ | Δ | ◯ | ◯ |
| CC(C)(C)Oc1ccc(CC(NC(=O)OCCS(=O)(=O)c2ccc([N+](=O)[O-])cc2)C(=O)O)cc1 (stereo not drawn) [Nsc-Tyr] | ◯ | ◯ | ◯ | ◯ |  |  |  |  |
| Cc1c(C)c(S(=O)(=O)N=C(N)NCCCC(NC(=O)OCCS(=O)(=O)c2ccc([N+](=O)[O-])cc2)C(=O)O)c(C)c2c1OC(C)(C)C2 (stereo not drawn) [Nsc-Arg] | ◯ | ◯ | ◯ | ◯ |  |  |  |  |
| CC(C)(C)OCC(NC(=O)OCC1c2ccccc2-c2ccccc21)C(=O)O (stereo not drawn) [Fmoc-Ser, reference compound] |  |  |  |  | ◯ | ◯ | ◯ | ◯ |
